Experimental data published in article PMC3578785, “Improved BM212 MmpL3 Inhibitor Analogue Shows Efficacy in Acute Murine Model of Tuberculosis Infection” (PLoS ONE, 2013).
≈ marks a conversion by molar mass, not a printed value. Where two headings read alike, the source gives them in different places.

Tests used:
M. tuberculosis H37Rv = assay: microbe, parasite or virus in culture; format: cell-based; details: Mycobacterium tuberculosis, aerobic conditions
[1] = target: human serum albumin (HSA) (Homo sapiens, UniProt P02768); format: in vitro ADME; details: human, pH 7.4
Chain of human serum albumin (HSA) (P02768 25-609): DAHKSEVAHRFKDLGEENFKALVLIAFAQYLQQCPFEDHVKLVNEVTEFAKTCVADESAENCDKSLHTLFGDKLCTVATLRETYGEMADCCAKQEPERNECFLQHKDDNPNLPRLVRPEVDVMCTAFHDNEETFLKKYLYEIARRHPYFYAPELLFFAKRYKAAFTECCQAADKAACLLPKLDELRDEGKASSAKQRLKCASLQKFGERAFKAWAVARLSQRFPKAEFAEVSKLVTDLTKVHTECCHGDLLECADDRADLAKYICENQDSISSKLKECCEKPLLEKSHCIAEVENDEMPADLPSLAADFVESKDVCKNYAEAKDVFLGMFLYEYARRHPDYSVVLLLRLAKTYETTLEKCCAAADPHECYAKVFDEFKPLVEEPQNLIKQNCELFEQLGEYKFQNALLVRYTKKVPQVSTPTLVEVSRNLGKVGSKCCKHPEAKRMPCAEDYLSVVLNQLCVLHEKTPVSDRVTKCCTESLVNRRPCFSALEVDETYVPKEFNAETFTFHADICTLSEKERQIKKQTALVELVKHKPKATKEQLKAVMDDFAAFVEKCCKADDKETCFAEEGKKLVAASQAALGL
Experimental: Standard physical chemical property determination methods were used. Please see the Supporting Information for details.
Protocol S4. Determination of compounds binding to human serum albumin (HSA).
The determination of compounds binding to human serum albumin (HSA) was carried out by retention time measurements using immobilized HSA HPLC columns obtained from Chiral Technologies Ltd, France. The column dimensions were 50x3 mm. The mobile phase was 50 mM ammonium acetate buffer pH 7.4 and HPLC grade 2-propanol. HPLC Method: flow rate 1.8 ml/min applying 2.5 min 2-propanol gradient up to 30%. From 2.5 min to 4.5 min the 2-propanol concentration in the mobile phase was kept at 30%. From 4.5 min to 4.6 min, the 2-propanol concentration was decreased to 0% and kept like that until the end of the gradient run which was 6 min. A calibration set of compounds was first analyzed for which plasma protein binding data were available: Warfarin, Nizatidine, Bromazepam, Carbamazepine, Budesonide, Nicardipine, Indomethacine, Piroxicam, Naproxen. The calculation of the HSA binding data expressed as %HSA was carried out as described previously.

in vitro [2] = format: in vitro ADME, mouse; details: pH 7.4; for Cli mouse: 0.5 µM; for half-life: mouse microsomes, read-out: t1/2 in mouse microsomes
Experimental: (§1) Protocol S6. Microsomal fraction stability experimental procedure.
(§2) Pooled mouse and human liver microsomes are purchased from Xenotech. Microsomes (final protein concentration 0.5 mg/mL, MgCl2 (final concentration = 5 mM) and test compound (final substrate concentration = 0.5 µM; final DMSO concentration = 0.5%) in 0.1M phosphate buffer pH 7.4 were pre-incubated at 37°C prior to the addition of NADPH (final concentration = 1 mM) to initiate the reaction. The final incubation volume was 600 µL. A control incubation was included for each compound tested where 0.1 M phosphate buffer pH 7.4 is added instead of NADPH (minus NADPH). One control compound was included with each species. All incubations were performed singularly for each test compound. Each compound was incubated for 30 minutes and samples (90 µL) of incubate were taken at 0, 5, 15, 20 and 30 min. The control (minus NADPH) was sampled at 30 min only. The reactions were stopped by the addition of sample to 200 µL Acetonitrile:Methanol 3:1 containing internal standard. The terminated samples were centrifuged at 2.500 rpm for 20 min at 4°C to precipitate the protein.
(§3) Quantitative Analysis: following protein precipitation, the samples were analyzed using specific […]
(§4) Data Analysis: from a plot of ln peak area ratio (compound peak area/internal standard peak area) against time, the gradient of the line was determined. Subsequently, half-life and intrinsic clearance were calculated using the equations below:
(§5) Elimination rate constant (k) = (- gradient)
(§6) Half life (t1/2) (min) = […]
(§7) Intrinsic Clearance (CLint) (mL/min/g protein) = […] where V=Incubation volume mL/g microsomal protein.

in vitro [3] = format: in vitro ADME, human; details: pH 7.4; for Cli human: 0.5 µM; for half-life: human microsomes, read-out: t1/2 in human microsomes
Experimental: as §1, §2, §3, §4, §5, §6, §7

HepG2 cells = details: human, 48 h
in vitro [4] = details: African green monkey
in vitro [5] = details: plasma, pH 7.4

Row | Structure (SMILES) | MIC (M. tuberculosis H37Rv) | HSA (%) binding [1] | Cli mouse (in vitro [2]) | half-life (in vitro [2]) | Cli human (in vitro [3]) | half-life (in vitro [3]) | melting point | Tox50, cytotoxicity in HepG2 cells (HepG2 cells) | CC50 at 72 h (in vitro [4]) | chromatographic logD (physchem; pH 2) | chromatographic logD (physchem; pH 7.4) | chromatographic logD (physchem; pH 10.5) | fraction unbound at 1 µM (in vitro [5])
1 | Cc1c(CN2CCOCC2)cc(-c2ccc(Cl)cc2)n1-c1ccc(C(C)C)cc1 [Compound 17, 2-Methyl-3-[(morpholin-4-yl)-methyl]-5-[4-(chloro)phenyl]-1-[4-(i-propyl)phenyl]-1H-pyrrole] | 0.9 µM (≈ 0.368 µg/mL) | 98.19% | 3.8 ± 0.1 mL/min/g | 19.6 min | 0.5 ± 0 mL/min/g | > 30 min | 113 °C | 14.7 µM | 175 µM | 1.67 | 5.43 | 5.7 | < 0.001
2 | CCCc1ccc(-c2cc(CN3CCOCC3)c(C)n2-c2ccc(Cl)cc2)cc1 [Compound 12, 2-Methyl-3-[(morpholin-4-yl)-methyl]-5-[4-(propyl)phenyl]-1-[4-(chloro)phenyl]-1H-pyrrole] | 2 µM (≈ 0.818 µg/mL) | 98.00% |  | > 30 min | <0.5 mL/min/g | > 30 min | 113 °C | 13.3 µM | > 256 µM | 1.61 | 5.3 | 5.59 | < 0.001
3 | COc1ccc(-n2c(-c3ccc(C(C)C)cc3)cc(CN3CCOCC3)c2C)cc1 [Compound 21, 2-Methyl-3-[(morpholin-4-yl)-methyl]-5-[4-(i-propyl)phenyl]-1-[4-(methoxy)phenyl]-1H-pyrrole] | 0.3 µM (≈ 0.121 µg/mL) | 97.07% | 6.07 mL/min/g | 10.7 min | 2.15 mL/min/g | > 30 min | 109 °C | 14.1 µM | 28.2 µM | 1.35 | 4.32 | 4.81 | 0.001
4 | COc1ccc(-c2cc(CN3CCSCC3)c(C)n2-c2ccc(F)cc2)cc1 [Compound 3] | 0.16 to 0.2 µM (≈ 0.0634 to 0.0793 µg/mL) | 96.82% | 18.76 mL/min/g | < 5 min |  |  |  |  | > 302 µM | 1.07 | 3.97 | 4.62 | 0.004
5 | CSc1ccc(-c2cc(CN3CCOCC3)c(C)n2-c2ccc(F)cc2)cc1 [Compound 7, 2-Methyl-3-[(morpholin-4-yl)-methyl]-5-[4-(methylthio)phenyl]-1-[4-(fluoro)phenyl]-1H-pyrrole] | 0.6 µM (≈ 0.238 µg/mL) | 97.00% | 7.30 mL/min/g | 9.27 min | 0.56 mL/min/g | > 30 min | 134 °C | 32.9 µM | 44.3 µM | 1.13 | 3.82 | 4.24 | 0.004
6 | CCc1ccc(-n2c(-c3ccc(Cl)cc3)cc(CN3CCOCC3)c2C)cc1 [Compound 15, 2-Methyl-3-[(morpholin-4-yl)-methyl]-5-[4-(chloro)phenyl]-1-[4-(ethyl)phenyl]-1H-pyrrole] | 0.6 µM (≈ 0.237 µg/mL) | 98.03% | 4.0 ± 0.1 mL/min/g | 18.5 min | 0.9 ± 0 mL/min/g | > 30 min | 102 °C | 17.8 µM | 170 µM | 1.54 | 5.01 | 5.36 | < 0.001
7 | Cc1c(CN2CCOCC2)cc(-c2ccc(C(C)C)cc2)n1-c1ccc(Cl)cc1 [Compound 13, 2-Methyl-3-[(morpholin-4-yl)-methyl]-5-[4-(i-propyl)phenyl]-1-[4-(chloro)phenyl]-1H-pyrrole] | 0.6 µM (≈ 0.245 µg/mL) | 97.94% |  | > 30 min | 0.71 mL/min/g | > 30 min | 135 °C | 10.0 µM | 241 µM | 1.56 | 5.13 | 5.45 | < 0.001
8 | Cc1ccc(-c2cc(CN3CCOCC3)c(C)n2-c2ccc(F)cc2)cc1 [Compound 5, 2-Methyl-3-[(morpholin-4-yl)-methyl]-5-[4-(methyl)phenyl]-1-[4-(fluoro)phenyl]-1H-pyrrole] | 0.3 µM (≈ 0.109 µg/mL) | 96.72% |  | 20.4 min | <0.5 mL/min/g | > 30 min | 133 to 135 °C | 20.08 µM | > 351 µM | 1.12 | 3.86 | 4.26 | 0.005
9 | CCCc1ccc(-n2c(-c3ccc(Cl)cc3)cc(CN3CCOCC3)c2C)cc1 [Compound 16, 2-Methyl-3-[(morpholin-4-yl)-methyl]-5-[4-(chloro)phenyl]-1-[4-(propyl)phenyl]-1H-pyrrole] | 0.6 µM (≈ 0.245 µg/mL) | 98.24% |  | > 30 min | <0.5 mL/min/g | > 30 min | 94 °C | 15.4 µM | 60.1 µM | 1.72 | 5.61 | 5.86 | < 0.001
10 | Cc1c(CN2CCN(C)CC2)cc(-c2ccc(Cl)cc2)n1-c1ccc(Cl)cc1 [Compound 1] | 5 µM (≈ 2.07 µg/mL) | 98.07% | 0.7 ± 0.1 mL/min/g | > 30 min |  |  |  | 7.8 µM |  | 0.7 | 4.51 | 5.01 | 0.002
11 | CCc1ccc(-c2cc(CN3CCOCC3)c(C)n2-c2ccc(Cl)cc2)cc1 [Compound 11, 2-Methyl-3-[(morpholin-4-yl)-methyl]-5-[4-(ethyl)phenyl]-1-[4-(chloro)phenyl]-1H-pyrrole] | 0.2 µM (≈ 0.079 µg/mL) | 97.74% | 2.83 mL/min/g | 25 min | 0.52 mL/min/g | > 30 min | 134 °C | 8.8 µM | > 256 µM | 1.42 | 4.77 | 5.16 | < 0.001
12 | CSc1ccc(-c2cc(CN3CCSCC3)c(C)n2-c2ccc(F)cc2)cc1 [Compound 4] | 0.16 to 0.2 µM (≈ 0.066 to 0.0825 µg/mL) | 98.04% | 7.3 ± 0.1 mL/min/g | 10 min |  |  |  |  | 15.2 µM | 1.33 | 4.52 | 5.03 | 0.007
13 | Cc1ccc(-c2cc(CN3CCSCC3)c(C)n2-c2ccc(F)cc2)cc1 [Compound 2] | 0.16 to 0.2 µM (≈ 0.0609 to 0.0761 µg/mL) | 97.91% | 7.2 ± 0.2 mL/min/g | 8.2 min |  |  |  | 24.01 µM | 179 µM | 1.31 | 4.54 | 5.08 | < 0.001
14 | COc1ccc(-c2cc(CN3CCOCC3)c(C)n2-c2ccc(F)cc2)cc1 [Compound 6, 2-Methyl-3-[(morpholin-4-yl)-methyl]-5-[4-(methoxy)phenyl]-1-[4-(fluoro)phenyl]-1H-pyrrole] | 0.6 µM (≈ 0.228 µg/mL) | 95.58% | 4.7 ± 0.1 mL/min/g | 15.9 min | 0.5 ± 0 mL/min/g | > 30 min | 169 °C |  | 58.7 µM | 0.93 | 3.32 | 3.73 | 0.017
